According to ChEMBL document CHEMBL1201862, “PubChem BioAssay data set” (2004):
Values joined by “and” are separate entries in the source; they are usually repeats but may differ in a detail not shown here. Identical values can stand only once.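 A five-concentration, 48-hour dose response in 96-well plates underlies each endpoint, interpolated linearly between surrounding concentrations. Abbreviation: GI50, concentration required for 50% inhibition of growth.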 Active and inactive are the calls of the source. Rule as the data show it: active = GI50 up to about 1.1 µM and inactive = higher.

Legend:
Assay in all cases: growth of human tumour cells (NCI), 48 h
786-0 = system: 786-0
A498 = system: A498
ACHN = system: ACHN
CAKI-1 = system: CAKI-1
HL-60 = system: HL-60
HOP-92 = system: HOP-92
M14 = system: M14
MDA-N = system: MDA-N
NCI-H522 = system: NCI-H522
NCI/ADR-RES = system: NCI/ADR-RES
OVCAR-5 = system: OVCAR-5
RPMI-8226 = system: RPMI-8226
SK-MEL-28 = system: SK-MEL-28
UO-31 = system: UO-31
OVCAR-3 = system: OVCAR-3
SK-MEL-2 = system: SK-MEL-2
TK-10 = system: TK-10
SK-OV-3 = system: SK-OV-3

Measured: GI50

CCOC(=O)c1c(-c2ccc(O)c(OC)c2)c(C#N)c(=S)n(C2OC(COC(C)=O)C(OC(C)=O)C(OC(C)=O)C2OC(C)=O)c1-c1ccccc1 (stereo not given)
inactive: 786-0 71.6 µM and 52.5 µM | A498 > 100 µM | ACHN 48.8 µM and 61.8 µM | CAKI-1 65.2 µM | HL-60 > 100 µM | HOP-92 24.9 µM | M14 82.4 µM | MDA-N 61.7 µM and 39.4 µM | NCI-H522 18.8 µM and 19.2 µM | NCI/ADR-RES 72.1 µM | OVCAR-5 > 100 µM | RPMI-8226 72.9 µM | SK-MEL-28 58.2 µM | UO-31 43.7 µM and 62.1 µM

CNS(=O)(=O)NN(C)S(=O)(=O)c1ccc(Br)cc1
inactive: 786-0 > 100 µM | A498 > 100 µM | ACHN > 100 µM | CAKI-1 > 100 µM | HL-60 > 100 µM | M14 > 100 µM | NCI-H522 > 100 µM | OVCAR-3 > 100 µM | RPMI-8226 > 100 µM | SK-MEL-2 > 100 µM | TK-10 > 100 µM | UO-31 > 100 µM

COC(=O)c1c(-c2ccccc2)sc(-c2cccc3ccccc23)c1C(=O)OC
inactive: 786-0 > 100 µM | A498 > 100 µM | ACHN > 100 µM | CAKI-1 > 100 µM | HL-60 > 100 µM | HOP-92 > 100 µM | M14 > 100 µM | NCI-H522 > 100 µM | OVCAR-3 81.1 µM | OVCAR-5 > 100 µM | RPMI-8226 > 100 µM | SK-MEL-28 > 100 µM | SK-MEL-2 > 100 µM | SK-OV-3 > 100 µM | TK-10 > 100 µM | UO-31 58.2 µM

Cc1c(/C=N/NC(=O)c2cc(Br)cc(Br)c2O)c(=O)n(-c2ccccc2)n1C
inactive: 786-0 92 µM | A498 > 100 µM | ACHN 51.1 µM | CAKI-1 25.2 µM | HL-60 2.49 µM | HOP-92 30.1 µM | M14 36.9 µM | NCI-H522 33 µM | OVCAR-3 29.9 µM | OVCAR-5 > 100 µM | RPMI-8226 85.7 µM | SK-MEL-28 20.8 µM | SK-MEL-2 > 100 µM | SK-OV-3 > 100 µM | TK-10 69.8 µM | UO-31 70.5 µM

COC1=CC(=O)C2C(C1=O)[C@@H]1c3ccccc3OC(C)(C)[C@H]21 (stereo not given in full)
inactive: 786-0 19.1 µM | A498 > 100 µM | ACHN 14.2 µM | CAKI-1 16.4 µM | HL-60 16.4 µM | HOP-92 20.5 µM | M14 18.7 µM | NCI-H522 13.9 µM | OVCAR-3 15.1 µM | OVCAR-5 40.8 µM | RPMI-8226 26.6 µM | SK-MEL-28 17.4 µM | SK-MEL-2 26.3 µM | SK-OV-3 90.4 µM | TK-10 21.1 µM | UO-31 15.2 µM

O=C(CC1C(=O)Nc2ccccc2S1(=O)=O)Nc1cccc(Cl)c1 (stereo not given)
inactive: 786-0 14.1 µM | A498 18.9 µM | ACHN 16.9 µM | CAKI-1 21.1 µM | HL-60 18.5 µM | HOP-92 16.1 µM | M14 18.8 µM | NCI-H522 16.9 µM | OVCAR-3 15.6 µM | OVCAR-5 23.2 µM | RPMI-8226 3.93 µM | SK-MEL-28 20.1 µM | SK-MEL-2 27.1 µM | TK-10 22.3 µM | UO-31 16.6 µM

NC(CCc1ncc(-c2ccccc2)s1)C(=O)O (stereo not given)
inactive: 786-0 > 100 µM | A498 > 100 µM | ACHN > 100 µM | CAKI-1 > 100 µM | HL-60 > 100 µM | HOP-92 > 100 µM | M14 > 100 µM | NCI-H522 > 100 µM | OVCAR-3 > 100 µM | RPMI-8226 > 100 µM | SK-MEL-28 > 100 µM | SK-OV-3 > 100 µM | TK-10 > 100 µM | UO-31 45.3 µM

CCC1NCC(=O)c2c1[nH]c1ccccc21 (stereo not given)
inactive: 786-0 > 100 µM | A498 > 100 µM | ACHN > 100 µM | CAKI-1 > 100 µM | HL-60 > 100 µM | HOP-92 > 100 µM | M14 > 100 µM | NCI-H522 91.6 µM | OVCAR-3 > 100 µM | OVCAR-5 > 100 µM | RPMI-8226 > 100 µM | SK-MEL-28 > 100 µM | SK-MEL-2 > 100 µM | SK-OV-3 > 100 µM | TK-10 > 100 µM | UO-31 > 100 µM

CCOC(=O)C1=C(O)C(=O)c2cc(C)ccc2C1=O
inactive: 786-0 > 100 µM | A498 21.9 µM | ACHN > 100 µM | CAKI-1 > 100 µM | HL-60 > 100 µM | HOP-92 > 100 µM | M14 54.8 µM | NCI-H522 > 100 µM | OVCAR-3 93.3 µM | OVCAR-5 > 100 µM | RPMI-8226 > 100 µM | SK-MEL-28 > 100 µM | SK-MEL-2 > 100 µM | SK-OV-3 > 100 µM | TK-10 > 100 µM | UO-31 > 100 µM

Cc1c(C(=O)CSc2nc3cc([N+](=O)[O-])ccc3[nH]2)c(=O)n(-c2ccccc2)n1C
inactive: 786-0 > 100 µM | A498 > 100 µM | ACHN > 100 µM | CAKI-1 > 100 µM | HL-60 > 100 µM | HOP-92 > 100 µM | M14 > 100 µM | NCI-H522 > 100 µM | OVCAR-3 71.8 µM | OVCAR-5 > 100 µM | RPMI-8226 > 100 µM | SK-MEL-28 > 100 µM | SK-MEL-2 > 100 µM | SK-OV-3 > 100 µM | TK-10 > 100 µM | UO-31 > 100 µM

CCOP(=O)(OCC)/C(C#N)=C\c1ccc(OC(C)=O)cc1
inactive: 786-0 > 100 µM | A498 > 100 µM | ACHN > 100 µM | CAKI-1 > 100 µM | HL-60 > 100 µM | HOP-92 > 100 µM | M14 > 100 µM | NCI-H522 > 80.2 µM | OVCAR-3 > 100 µM | OVCAR-5 > 100 µM | RPMI-8226 > 100 µM | SK-MEL-28 > 100 µM | SK-MEL-2 > 100 µM | SK-OV-3 > 100 µM | TK-10 > 100 µM | UO-31 > 100 µM

Cc1cc2c(=O)c3ccc(Cl)cc3[nH]c2c(C(N)=O)c1C
inactive: 786-0 > 100 µM | A498 > 100 µM | ACHN > 100 µM | HL-60 > 100 µM | HOP-92 > 100 µM | M14 > 100 µM | NCI-H522 > 100 µM | OVCAR-3 > 100 µM | OVCAR-5 > 100 µM | RPMI-8226 > 100 µM | SK-MEL-28 > 100 µM | SK-MEL-2 > 100 µM | SK-OV-3 > 100 µM | TK-10 > 100 µM | UO-31 > 100 µM

CC1OC(OC2CCCc3c(O)c4c(c(O)c32)C(=O)c2ccccc2C4=O)CC(N)C1O (stereo not given)
inactive: 786-0 1.29 µM | A498 1.7 µM | ACHN 1.88 µM | CAKI-1 1.43 µM | HL-60 1.75 µM | HOP-92 1.43 µM | M14 1.79 µM | NCI-H522 1.64 µM | OVCAR-3 1.34 µM | OVCAR-5 1.91 µM | RPMI-8226 1.58 µM | SK-MEL-28 1.88 µM | SK-MEL-2 1.75 µM | SK-OV-3 1.15 µM | TK-10 1.6 µM | UO-31 1.73 µM

CCCN1CN(C(C(=O)N[C@@H]2C(=O)N3C2SC(C)(C)C3C(=O)O)c2ccccc2)CSC1=S (stereo not given in full)
inactive: 786-0 > 100 µM | A498 > 100 µM | ACHN > 100 µM | CAKI-1 > 100 µM | HL-60 48 µM | HOP-92 > 100 µM | M14 > 100 µM | NCI-H522 23.1 µM | OVCAR-3 32.2 µM | OVCAR-5 > 100 µM | RPMI-8226 53.6 µM | SK-MEL-28 > 100 µM | SK-MEL-2 > 100 µM | SK-OV-3 > 100 µM | TK-10 > 100 µM | UO-31 > 100 µM

NC(CCSC(F)F)C(=O)O (stereo not given)
inactive: 786-0 > 100 µM | ACHN > 100 µM | CAKI-1 > 100 µM | HOP-92 > 100 µM | M14 > 100 µM | NCI-H522 > 100 µM | OVCAR-3 > 100 µM | OVCAR-5 > 100 µM | SK-MEL-28 > 100 µM | SK-MEL-2 > 100 µM | SK-OV-3 > 100 µM | TK-10 > 100 µM | UO-31 > 100 µM

CCOC(=O)N[C@@H]1C(CC(=O)OC)O[C@H]2OC(C)(C)O[C@H]21 (stereo not given in full)
inactive: 786-0 > 100 µM | A498 > 100 µM | ACHN > 100 µM | CAKI-1 > 100 µM | HL-60 > 100 µM | HOP-92 > 100 µM | M14 > 100 µM | OVCAR-3 > 100 µM | OVCAR-5 > 100 µM | RPMI-8226 > 100 µM | SK-MEL-28 > 100 µM | SK-MEL-2 > 100 µM | SK-OV-3 > 100 µM | UO-31 > 100 µM

COc1ccc2cc3[n+](cc2c1O)CCc1cc2c(cc1-3)OCO2 [BERBERRUBINE CHLORIDE]
inactive: 786-0 > 100 µM | A498 > 100 µM | ACHN 79.8 µM | HL-60 > 100 µM | M14 > 100 µM | NCI-H522 > 100 µM | OVCAR-3 > 100 µM | OVCAR-5 > 100 µM | RPMI-8226 > 100 µM | SK-MEL-28 > 100 µM | SK-MEL-2 > 100 µM | SK-OV-3 > 100 µM | TK-10 > 100 µM | UO-31 > 100 µM
